Results from patent US20230181673A1, “TRI-PEPTIDES AND TREATMENT OF METABOLIC, CARDIOVASCULAR AND INFLAMMATORY DISORDERS” (Diapin Therapeutics, LLC, priority 2018, published 2023).
Non-standard residues stand in square brackets, D forms with d. No end group written: not given here.

Assays:
[1] = system: ABCG8; assay: Western blot of hepatic ABCG8 in WD-fed apoE−/− mice; assay type: in vivo; conditions: normalized to β-Actin
Description: (§1) Eight-week-old male apolipoprotein E-deficient (apoE−/−) mice (B6.129P2-Apoetm1Unc/J, Stock No.: 002052) were obtained from Jackson Laboratories. Mice were fed Western diet (WD, 42% of calories from fat and 0.2% cholesterol by weight, Envigo TD.88137). After one week of WD feeding, blood was carefully collected from the facial vein to determine baseline plasma levels of total cholesterol (TC). […] All mice were maintained on a 12-hour light/dark cycle and had ad libitum access to food and water. Body weight and food intake were measured every one and three weeks, respectively
The following primary antibodies were used: rabbit polyclonal anti-ABCG8 (Santa Cruz Biotechnology, sc-30111, working dilution 1:1000) and rabbit polyclonal anti-β-Actin (Cell signaling, 4967S, working dilution 1:3000). After TBST washing, membranes were incubated with secondary antibodies (LI-COR Biotechnology, donkey anti-rabbit IRDye 926-32213, 926-88073, working dilution 1:10000) for 1 hour at room temperature.

[2] = Body weight, food intake and adiposity in apoE−/− mice fed Western diet; assay type: in vivo; conditions: apoE−/− mice on WD; for Gross appearance of the peritoneal cavities at endpoint (yellowish coloration of the liver, enlarged visceral fat pads): glycine 0.67, leucine 0.33, DT-109/DT-110 1 mg/g; for Total gain in body weight from baseline to endpoint, lower by: 12 weeks oral gavage, DT-109 1 mg/g; for Adipocyte hypertrophy in EAT and SAT: H&E histology (FIG. 15L)
Description: as §1, with “All animal procedures were approved by the Institutional Animal Care & Use Committee of the University of Michigan (PRO00008239) and performed in accordance with the institutional guidelines. Eight-week-old” for “Eight-week-old”
The experimental design is depicted in FIG. 1A. After one week of Western diet (WD) feeding to apoE−/− mice, blood was collected from the facial vein (FV) to determine baseline plasma levels of TC.
Animal procedures were approved (PRO00008239) by the Institutional Animal Care & Use Committee of the University of Michigan (U-M) and performed in accordance with the institutional guidelines. Seven weeks-old C57BL/6J or apoE−/− mice (B6.129P2-Apoetm1Unc/J, Stock:002052) were from Jackson Laboratories. AGXT1−/− mice on C57BL/6J background were generated using CRISPR/Cas9, with guide-RNA targeting exon 1 of AGXT1: 5′-[…]-3′.
Histological procedures were performed by technicians blinded to the experimental groups at the In Vivo Animal Core (IVAC) Histology Laboratory, University of Michigan. Formalin-fixed tissues were processed through graded alcohols and cleared with xylene followed by infiltration with molten paraffin using an automated VIP5 or VIP6 tissue processor (TissueTek, Sakura-Americas). Using a Histostar Embedding Station (ThermoFisher Scientific), tissues were then sectioned on a M355S rotary microtome (ThermoFisher Scientific) at 4 μm thickness and mounted on glass slides. Slides were stained for hematoxylin and eosin (H&E, ThermoFisher Scientific). For Sirius Red staining, slides were treated with 0.2 phosphomolybdic acid for 3 min and transferred to 0.1% Sirius Red saturated in picric acid (Rowley Biochemical Inc.) for 90 min, then transferred to 0.01N hydrochloric acid for 3 min.

[3] = system: diet-induced NASH; assay type: in vivo, mice; conditions: for NASH-diet-induced hepatomegaly and yellowish coloration: leucine 0.17, glycine 0.33, DT-109 0.125 or 0.5 mg/g/day
[4] = system: NASH-diet-induced HS; assay type: in vivo, mice; conditions: endpoint
Method: Frozen section processing was used for Oil Red O (ORO) staining. Formalin-fixed liver samples were cryoprotected in 20% sucrose at 4° C. overnight, blotted, then liquid nitrogen-snap frozen in O.C.T. Compound (Tissue-Tek, Cat #4583) and stored at −80° C. until ready for cryosectioning. Prior to sectioning, frozen blocks were brought up to about −20° C., then sectioned at 5 μm on a Cryotome SME (Thermo-Shandon, Cat #77200227). Slides were stored at −80° C. until stained. Prior to staining, liver slides were thawed to room temperature for 30 min. Slides were post-fixed in 10% Neutral Buffered Formalin for 20 min, rinsed in DDW, followed by rinsing in 60% Isopropanol before being placed in working ORO-isopropanol stain (Rowley Biochemical Inc., H-503-1B) for 5 min. Slides were then rinsed in 60% Isopropanol followed by three changes of DDW. Then, slides were nuclear counterstained in Harris Hematoxylin and mounted in Aqua-Mount (Lerner Laboratories, Cat #13800) aqueous mounting media.
Livers were rapidly removed from the euthanized mice, snap-frozen with liquid nitrogen, and kept at −80° C. Frozen liver samples (100 mg) were homogenized in PBS and centrifuged (14,000 RPM, 20 min). The supernatants were collected and analyzed for protein content using Bio-Rad Bradford assay. To assess liver lipid composition, lipids were extracted from the supernatants using hexane (≥99%, Sigma-Aldrich 32293) and isopropanol (≥99.5%, Fisher Scientific A428-4) at a 3:2 ratio (v:v), and the hexane phase was left for evaporation for 48 h. […] Liver diacylglycerols (DAG) were determined using ELISA Kit (Aviva Systems Biology, OKEH02607), according to the manufacturer's instructions. Hepatic TG, TC and DAG data were normalized to protein levels.
Mice fed CD and administered H2O served as control.

Molecule: Gly-Gly-[dL] [DT-110]
- ABCG8 protein in liver (Western blot) [1]: Overexpression
- Gross appearance of the peritoneal cavities at endpoint (yellowish coloration of the liver, enlarged visceral fat pads) ([2]; 12 weeks): attenuated

Molecule: CC(C)C[C@H](N)C(=O)O [leucine]
- F4/80 immunostaining in liver ([3]; endpoint, NASH-diet): significantly increased
- NASH-diet-induced hepatic fibrosis (Sirius Red and fibrosis scoring) ([3]; endpoint, NASH-diet): but not leucine
- HS by ORO and lipid quantification [4]: marked HS
- Gross appearance of the peritoneal cavities at endpoint (yellowish coloration of the liver, enlarged visceral fat pads) ([2]; 12 weeks): yellowish coloration of the liver and enlarged visceral fat pads

Molecule: NCC(=O)O [glycine, reference compound]
- F4/80 immunostaining in liver ([3]; endpoint, NASH-diet): attenuated
- NASH-diet-induced hepatic fibrosis (Sirius Red and fibrosis scoring) ([3]; endpoint, NASH-diet): protective effects
- NASH-diet-induced hepatomegaly and yellowish coloration ([3]; endpoint): markedly attenuated
- ABCG8 protein in liver (Western blot) [1]: Overexpression
- HS by ORO and lipid quantification [4]: significantly attenuated
- Total gain in body weight from baseline to endpoint, lower by ([2]; glycine 0.67 mg/g, vs WD+H2O): 51%
- Gross appearance of the peritoneal cavities at endpoint (yellowish coloration of the liver, enlarged visceral fat pads) ([2]; 12 weeks): attenuated
- Adipocyte hypertrophy in EAT and SAT [2]: reduced
- Endpoint body weight, lower by ([2]; oral gavage 6 times per week, 12 weeks, glycine 0.67 mg/g, vs WD+H2O): 12%

Molecule: Gly-Gly-Leu [DT-109]
- Adipocyte hypertrophy in EAT and SAT ([3]; NASH-diet, 0.5 mg/g/day DT-109): decreased adipocyte hypertrophy
- NAS ([3]; endpoint, 0.5 mg/g/day DT-109): significantly decreased
- F4/80 immunostaining in liver ([3]; endpoint, NASH-diet): attenuated
- NASH-diet-induced hepatic fibrosis (Sirius Red and fibrosis scoring) ([3]; endpoint, NASH-diet): protective effects
- NASH-diet-induced hepatomegaly and yellowish coloration ([3]; endpoint): markedly attenuated
- ABCG8 protein in liver (Western blot) [1]: Overexpression
- HS by ORO and lipid quantification [4]: significantly attenuated
- Liver diacylglycerols (DAG) ([4]; 0.5 mg/g/day DT-109): significantly reduced
- Total gain in body weight from baseline to endpoint, lower by ([2]; glycine 0.67 mg/g, vs WD+H2O): 28%
- Gross appearance of the peritoneal cavities at endpoint (yellowish coloration of the liver, enlarged visceral fat pads) ([2]; 12 weeks): attenuated
- Adipocyte hypertrophy in EAT and SAT [2]: reduced
